From US8038984B2, “Membrane-permeant peptide complexes for treatment of sepsis” (Washington University, priority 1998, dated 2011)
Numbered stars: 1 amine (or outer) side, 2 acyl side, 3 side chain; on linkers, the order of the positions; unused ones are H or OH. Square brackets hold non-standard residues; d marks the D form. Ends that are not written are not given here. εLys = N[C@@H](CCCCN[*:1])C(=O)[*:2]; D‑k∗gc = not defined here; K∗GC = not defined here; Ahx = NCCCCCC(=O)O

Assays:
[1] = system: human Jurkat leukemia cells; test: Cell accumulation (uptake) of Tc-99m-Tat-peptide complexes in Jurkat cells; assay type: cell-based; details: for Jurkat Cell Uptake: Table 2, radiolabeled (99mTc) peptides, net cell uptake; for effect of inhibitor on net cell uptake of the Tat-peptide metal complex: colchicine 100 ng/ml, taxol 1 μM, nocodozole 5 μg/ml, cytochalasin D 1 μM, brefeldin A 2.5 μg/ml, wortmannin 100 nM; for 20 min Uptake: [99mTc] complexes, 37° C.; for U/W Ratio: uptake/washout ratio
Description: Control solution for cell uptake experiments was a modified Earle's balanced salt solution (MEBSS) containing (mM): 145 Na^+, 5.4 K^+, 1.2 Ca^2+, 0.8 Mg^2+, 152 Cl^−, 0.8 H2PO4^−, 0.8 SO4^2−, 5.6 dextrose, 4.0 HEPES, and 1% bovine calf serum (vol/vol), pH 7.4±0.05. A 130 mM K^+/20 mM Cl^− solution was made by equimolar substitution of potassium methanesulfonate for NaCl as described by Piwnica-Worms et al. (J. Gen. Physiol., 81:731-748, 1983).
(§1) Characterization of accumulation of Tc-99m-peptide complex was also performed for nonadherent cell lines such as human Jurkat leukemia cells with minor modifications of methods described in the literature (Bosch et al., Leukemia, 11: 1131-1137, 1997). Transport experiments were performed in siliconized microfuge tubes and initiated by addition of 732.5 μl of cells at 2-3×10^6 cells/ml to 10 μl of buffer containing Tc-99m-peptide complex and 7.5 μl of vehicle alone or of any added drug in vehicle at 100-fold the desired concentration. The tubes were incubated in a 37° C. water bath with occasional mixing. The reaction was terminated by centrifuging 250 μl aliquots from the reaction for 10 seconds through 800 μl of a 75:25 mixture of silicon oil, density=1.050 (Aldrich) and mineral oil, density=0.875 (Acros). An aliquot of the aqueous phase was obtained to normalize extracellular concentration of the complex to cell-associated activity, then the oil and aqueous phases were aspirated and the cell pellet extracted in 0.5 ml of 1% SDS, 10 mM sodium borate. For tracer washout experiments, cells were first incubated to plateau uptake (10 min) in loading buffer (37° C.), collected by rapid centrifugation and the pellet resuspended in 50 ml MEBSS (4° C.) to clear extracellular tracer. Following another rapid spin, the cell pellet was resuspended in isotope-free MEBSS (37° C.) and the experiment terminated as above after various times in warm washout buffer. Radioactivity of the cell pellet, buffers and stocks were determined on a gamma counter (Cobra II, 130-165 keV window) and cell protein was determined by the BCA assay (Pierce). Transport data are reported as fmol Tc-complex (mg protein)^−1 (nM0)^− as previously described, with (nM0)^−1 representing total concentration of peptide conjugate in the extracellular buffer (Piwnica-Worms et al., Circulation, 82: 1826-1838, 1990).
Kinetic experiments of [^99mTc]D-Tat-peptide complexes were performed in Jurkat leukemia cells suspended in MEBSS with minor modification of the methods described in Example 6. Transport experiments were performed in siliconized microfuge tubes and initiated by addition of 732.5 μl of cells at 2-3×10^6 cells/ml to 10 μl of MEBSS containing [^99mTc]D-Tat-peptide complex and 7.5 μl of vehicle alone or of any added drug in vehicle at 100 fold the desired concentration. Unless stated otherwise, [^99mTc]D-Tat-peptide complex was added to MEBSS accompanied by a molar excess of unlabeled D-Tat-peptide as obtained directly from the labeling procedure. The final total peptide concentration was 7 nM to 8 μM (1-2 μCi/ml). The tube were incubated at 37° C. and the reaction terminated as previously described. For peptide washout experiments, cells were first incubated to plateau uptake (20 minutes) in MEBSS loading buffer at 37° C., collected by rapid centrifugation and the pellet resuspended in 50 ml of isotope-free MEBSS at 4° C. to clear extracellular tracer. Following another rapid spin, the cell pellet was resuspended in isotope-free MEBSS at 37° C. for various times and the reaction terminated as described previously. Protein assays and determination of gamma activity were as described in Example 6. Absolute concentration of total [Tc]Tat-peptide complex in solution was determined from the specific activity of Tc, based on equations of Mo/Tc generator equilibrium (Lamson et al., J. Nucl. Med., 16:639-641, 1975). […]

[2] = system: human Jurkat leukemia cells; test: Washout of Tc-99m-Tat-peptide complexes from preloaded Jurkat cells; assay type: cell-based; details: for 30 min Washout: residual activity remaining within the cell 30 minutes after a wash in isotope-free buffer
Description: as §1
Kinetic experiments of [^99mTc]D-Tat-peptide complexes were performed in Jurkat leukemia cells suspended in MEBSS with minor modification of the methods described in Example 6. Transport experiments were performed in siliconized microfuge tubes and initiated by addition of 732.5 μl of cells at 2-3×10^6 cells/ml to 10 μl of MEBSS containing [^99mTc]D-Tat-peptide complex and 7.5 μl of vehicle alone or of any added drug in vehicle at 100 fold the desired concentration. Unless stated otherwise, [^99mTc]D-Tat-peptide complex was added to MEBSS accompanied by a molar excess of unlabeled D-Tat-peptide as obtained directly from the labeling procedure. The final total peptide concentration was 7 nM to 8 μM (1-2 μCi/ml). The tube were incubated at 37° C. and the reaction terminated as previously described. For peptide washout experiments, cells were first incubated to plateau uptake (20 minutes) in MEBSS loading buffer at 37° C., collected by rapid centrifugation and the pellet resuspended in 50 ml of isotope-free MEBSS at 4° C. to clear extracellular tracer. Following another rapid spin, the cell pellet was resuspended in isotope-free MEBSS at 37° C. for various times and the reaction terminated as described previously. Protein assays and determination of gamma activity were as described in Example 6. Absolute concentration of total [Tc]Tat-peptide complex in solution was determined from the specific activity of Tc, based on equations of Mo/Tc generator equilibrium (Lamson et al., J. Nucl. Med., 16:639-641, 1975). Transport data are reported as pmol of peptidei (mg protein)^−1 (μM0)^−1, wherein peptidei represents total peptide conjugate within the cells and (nM0)^−1 represents concentration of total peptide conjugate in the extracellular buffer.

Q: For “1a (GRKKRRQRRR; acetyl; AHA-K*GC chelator, amide) [Conjugate 1a]”, which “Jurkat Cell Uptake” value ([1]; Jurkat cells) is on record?
A: The value was 92.90 ± 21.17 pmol (mg protein)^−1 (μM0)^−1.

Q: For “2b (GRKKRRQRRR; acetyl; AHA-D-k*gc chelator, amide) [Conjugate 2b]”, which “Jurkat Cell Uptake” value ([1]; Jurkat cells) is on record?
A: The value was 50.39 ± 25.73 pmol (mg protein)^−1 (μM0)^−1.

Q: For “4d (Ac-RKKRRQRRR-{Ahx-K∗GC-NH2}; reading uncertain) [Conjugate 4d]”, which “Jurkat Cell Uptake” value ([1]; Jurkat cells) is on record?
A: The value was 90.75 ± 41.04 pmol (mg protein)^−1 (μM0)^−1.

Q: With “5e (Ac-RKKRRQRRR-{Ahx-D‑k∗gc-NH2}; reading uncertain) [Conjugate 5e]” as the compound, how does the “Jurkat Cell Uptake” value ([1]; Jurkat cells) read?
A: Its value is 48.81 ± 2.91 pmol (mg protein)^−1 (μM0)^−1.

Q: With “8h (RKKRRQRRR-{Ahx-D‑k∗gc-NH2}; reading uncertain) [Conjugate 8h]” as the compound, how does the “Jurkat Cell Uptake” value ([1]; Jurkat cells) read?
A: Its value is 64.35 ± 1.63 pmol (mg protein)^−1 (μM0)^−1.

Q: With “10j (GRKKRRQRRR; AHA linker, D-k*gc chelator, amide) [Conjugate 10j]” as the compound, how does the “Jurkat Cell Uptake” value ([1]; Jurkat cells) read?
A: Its value is 106.96 ± 1.55 pmol (mg protein)^−1 (μM0)^−1.

Q: Which “Jurkat Cell Uptake” value ([1]; Jurkat cells) does the source give for “12l (RKKRRQRRR; not fully specified; biotin; AHA-K*GC chelator, amide) [Conjugate 12l]” here?
A: The value was 51.07 ± 11.78 pmol (mg protein)^−1 (μM0)^−1.

Q: “28 (Ac-RRRRRRR-{Ahx-D‑k∗gc-NH2}; reading uncertain) [Conjugate 28]” was tested. Which “Jurkat Cell Uptake” value ([1]; Jurkat cells) did it give?
A: Its value is 34.73 ± 6.99 pmol (mg protein)^−1 (μM0)^−1.

Q: With “30 (Ac-RRRRRRRR-{Ahx-D‑k∗gc-NH2}; reading uncertain) [Conjugate 30]” as the compound, how does the “Jurkat Cell Uptake” value ([1]; Jurkat cells) read?
A: Its value is 59.02 ± 5.52 pmol (mg protein)^−1 (μM0)^−1.

Q: With “32 (Ac-RRRRRRRRR-{Ahx-D‑k∗gc-NH2}; reading uncertain) [Conjugate 32]” as the compound, how does the “Jurkat Cell Uptake” value ([1]; Jurkat cells) read?
A: The value was 129.11 ± 69.01 pmol (mg protein)^−1 (μM0)^−1.

Q: `COc1cc2c(c(OC)c1OC)-c1ccc(OC)c(=O)cc1[C@@H](NC(C)=O)CC2` [Colchicine, reference compound] was tested. Which “effect of inhibitor on net cell uptake of the Tat-peptide metal complex” value (“effect of inhibitor” for short) ([1]; Jurkat cells, data not shown) did it give?
A: The value was “no significant effect”.

Q: For `C[C@H]1CCC/C=C/[C@@H]2C[C@H](O)C[C@H]2[C@H](O)/C=C/C(=O)O1` [brefeldin A, reference compound], which “effect of inhibitor” value ([1]; Jurkat cells, data not shown) is on record?
A: The value was “no significant effect”.

Q: `C=C1[C@@H](C)[C@H]2[C@H](Cc3ccccc3)NC(=O)[C@]23[C@H](OC(C)=O)/C=C/[C@@](C)(O)C(=O)[C@@H](C)C/C=C/[C@H]3[C@@H]1O` [cytochalasin D, reference compound] was tested. Which “effect of inhibitor” value ([1]; Jurkat cells, data not shown) did it give?
A: Its value is “no significant effect”.

Q: With `COC(=O)Nc1nc2ccc(C(=O)c3cccs3)cc2n1C` [nocodozole, reference compound] as the compound, how does the “effect of inhibitor” value ([1]; Jurkat cells, data not shown) read?
A: The value was “no significant effect”.

Q: `CC(=O)O[C@H]1C(=O)[C@@]2(C)[C@H]([C@H](OC(=O)c3ccccc3)[C@]3(O)C[C@H](OC(=O)[C@H](O)[C@@H](NC(=O)c4ccccc4)c4ccccc4)C(C)=C1C3(C)C)[C@]1(OC(C)=O)CO[C@@H]1C[C@@H]2O` [taxol, reference compound] was tested. Which “effect of inhibitor” value ([1]; Jurkat cells, data not shown) did it give?
A: The value was “no significant effect”.

Q: How did the “effect of inhibitor” value ([1]; Jurkat cells, data not shown) turn out when `COC[C@H]1OC(=O)c2coc3c2[C@@]1(C)C1=C(C3=O)[C@@H]2CCC(=O)[C@@]2(C)C[C@H]1OC(C)=O` [wortmannin, reference compound] was run?
A: The value was “no significant effect”.

Q: Which results are given for “Acetyl- GRKKRRQRRR-AHA- εKGC-amide [Conjugate 1]”?
A: 20 min Uptake ([1]; Jurkat cells): 77.93 pmol (mg protein)^−1 (μM0)^−1; U/W Ratio ([1]; Jurkat cells): 3.2; 30 min Washout [2]: 24.26 pmol (mg protein)^−1 (μM0)^−1

Q: How did the “net uptake under isoelectric conditions compared to control buffer” value ([1]; 130 mM K+/20 mM Cl− and 1 μg/ml valinomycin, data not shown) turn out when “acetyl-GRKKRRORRR-AHA-εKGC-amide(Tc^v-99m) trifluoroacetate [Example 2]” was run?
A: The value was “not decreased”.

Q: And the “net accumulation in ice-cold buffer” value ([1]; 4° C., Jurkat cells)?
A: The value was “only modestly inhibited”.

Q: And the “time to approach plateau accumulation” value ([1]; Jurkat cells)?
A: Its value is at most 2 min.

Q: What about the “time plateau (quasi-steady state) was maintained” value ([1]; Jurkat cells continuously exposed to the complex) of the same compound?
A: Its value is “at least 1 hour”.

Q: What about the “Steady-state value of accumulation” value ([1]; Jurkat cells, n=4) of the same compound?
A: The value was 116±3 fmol (mg protein)^−1 (nM0)^−1.

Q: And the “20 min Uptake” value ([1]; Jurkat cells)?
A: The value was 61.73 pmol (mg protein)^−1 (μM0)^−1.

Q: What about the in/out ratio ([1]; given a typical cell water space of 4 μl (mg protein)^−1) of the same compound?
A: Its in/out ratio is about 30.

Q: What about the “extracellular concentration of half-maximal accumulation” value ([1]; plateau accumulation after 10 minutes, 7 nM to 8 μM, curve fitting) of the same compound?
A: Its value is about 3 µM.

Q: And the “U/W Ratio” value ([1]; Jurkat cells)?
A: The value was 5.6.

Q: And the cell accumulation complete ([1]; within 2 minutes, extracellular concentration of peptide 950 nM, Jurkat cells)?
A: The cell accumulation complete was 90%.

Q: What about the “30 min Washout” value [2] of the same compound?
A: The value was 10.99 pmol (mg protein)^−1 (μM0)^−1.

Q: What about the “residual level of peptide remaining in cells” value ([2]; slowly exchanging or retaining compartment after washout) of the same compound?
A: The value was < 10 % of peak activity.

Q: What about the washout complete ([2]; within 20 minutes, preloaded Jurkat cells) of the same compound?
A: The washout complete was about 90%.

Q: Which “20 min Uptake” value ([1]; Jurkat cells) does the source give for “acetyl-GRKKRRQRRR-GDEVDG-εKGC-amide (Ac-GRKKRRQRRRGDEVDG[εLys]GC-NH2; SMILES CC(=O)NCC(=O)N[C@@H](CCCNC(=N)N)C(=O)N[C@@H](CCCCN)C(=O)N[C@@H](CCCCN)C(=O)N[C@@H](CCCNC(=N)N)C(=O)N[C@@H](CCCNC(=N)N)C(=O)N[C@@H](CCC(N)=O)C(=O)N[C@@H](CCCNC(=N)N)C(=O)N[C@@H](CCCNC(=N)N)C(=O)N[C@@H](CCCNC(=N)N)C(=O)NCC(=O)N[C@@H](CC(=O)O)C(=O)N[C@@H](CCC(=O)O)C(=O)N[C@H](C(=O)N[C@@H](CC(=O)O)C(=O)NCC(=O)NCCCC[C@H](N)C(=O)NCC(=O)N[C@@H](CS)C(N)=O)C(C)C) [Example 8]” here?
A: The value was 317.92 pmol (mg protein)^−1 (μM0)^−1.

Q: And the “U/W Ratio” value ([1]; Jurkat cells)?
A: Its value is 6.2.

Q: What about the “30 min Washout” value [2] of the same compound?
A: Its value is 50.87 pmol (mg protein)^−1 (μM0)^−1.
